# In US20260159536A1, “AKR1C3-ACTIVATED DNA ALKYLATING AGENT, AND MEDICAL APPLICATION THEREOF” (ASCENTAWITS PHARMACEUTICALS, LTD., priority 2021, published 2026):
# Experiments:
# huH-1 = assay: Cytotoxicity on hepatocellular carcinoma cell line huH-1; format: cell-based
# Method: If not otherwise specified, IC50 values were measured by the following experimental methods:
# a) Cells were plated for 24 hours, and then the compounds acted singly. 99 μL of growth medium was supplemented per well, and then 1 μL of 200× compound was added, gently shaken to ensure uniform mixing, and then placed in a 37° C., 5% CO2 incubator.
# b) The cell plate was placed in the incubator for 72 hours.
# b) 100 μL of CTG reagent (CelltiterGlo kit) was added to each well, the plate was placed in a rapid oscillator and shaken for 2 minutes, and then placed at room temperature for 30 minutes away from light.
# The IC50 was calculated using GraphPad Prism 8 software and the IC50 (half inhibitory concentration) of the compounds was obtained using the following non-linear fitting formula: […]
# Using the same experimental methods as described above, Compounds A, B and C were further tested for cytotoxicity against different hepatocellular carcinoma (HCC) cell lines SNU354, SNU886, MHCC97H and huH-1, and the results were shown in Table 2 below: […]
# [1] = test system: HuPrime model LI6280 human liver cancer; assay: In vivo pharmacodynamics, liver cancer LI6280 PDX model; set-up: species or system BALB/c nude mice; details: for Tumor volume: 4.5 mg/kg i.v.
# Method: Experiment Instruction: BALB/c nude mice were subcutaneously inoculated with HuPrime® model LI6280 tumour blocks to establish a subcutaneous transplantation tumour model of human liver cancer. […] The efficacy was evaluated according to the relative tumor inhibition rate TGI (%), and the safety was evaluated according to the change in body weight and the death of the animals.
# [2] = test system: HuPrime model PA1222 human pancreatic cancer; assay: In vivo pharmacodynamics, pancreatic cancer PA1222 PDX model; details: for Tumor volume: 10 mg/kg i.v.
# Method: The test was divided into groups of test drug Gemcitabine 120 mg/kg group, test drug Compound A 10 mg/kg and 7.5% anhydrous ethanol+7.5% polyoxyethylene (35) castor oil+85% glucose injection DSW (pH 7.4) vehicle control group, a total of 3 groups, with 5 mice per group. […] Test drug Gemcitabine (Gemcitabine) 120 mg/kg group was administered intraperitoneally, once a week for three consecutive weeks.
compound,measurement,setting,value
O=[N+]([O-])c1ccc(C(OP(=O)(N2CC2)N2CC2)C(F)(F)F)cc1Oc1ccc(-c2ccc(F)cc2)c(F)c1 (racemic) [Compound A],IC50,"huH-1; Homo sapiens, HuH-1",306 nM
same,ratio A/B,"huH-1; IC50 ratio, huH-1",1.19
same,ratio A/C,"huH-1; IC50 ratio, huH-1",1.14
same,Relative tumor volume (x ± S),"[1]; 4.5 mg/kg i.v. QWx3, Day 17",20.79 ± 1.15
same,T/C (%),"[1]; 4.5 mg/kg i.v. QWx3, Day 17",101.41%
same,TGI (%),"[1]; 4.5 mg/kg i.v. QWx3, Day 17",−1.41%
same,Tumor volume (x ± S),"[1]; 4.5 mg/kg i.v. QWx3, Day 17, in mm³ (unit assumed)",2201.20 ± 287.44
same,Tumor volume,[1]; Day 0,103.98 mm^3
same,Tumor volume,[1]; Day 3,150.33 mm^3
same,Tumor volume,[1]; Day 7,318.74 mm^3
same,Tumor volume,[1]; Day 10,683.99 mm^3
same,Tumor volume,[1]; Day 14,1404.42 mm^3
same,Tumor volume,[1]; Day 17,2201.20 mm^3
same,Tumor volume,[1]; Day 21,2739.12 mm^3
same,Tumor volume,[1]; Day 24,3311.77 mm^3
same,Tumor volume,[1]; Day 28,3362.07 mm^3
same,toxic side effects (body weight change),[2]; 10 mg/kg i.v. QWx3,without toxic side effects
same,Tumor volume,[2]; Day 0,111.50 mm^3
same,Tumor volume,[2]; Day 3,117.62 mm^3
same,Tumor volume,[2]; Day 7,113.91 mm^3
same,Tumor volume,[2]; Day 10,107.17 mm^3
same,Tumor volume,[2]; Day 14,66.08 mm^3
same,Tumor volume,[2]; Day 17,42.94 mm^3
same,Tumor volume,[2]; Day 21,23.22 mm^3
same,Tumor volume,[2]; Day 24,21.20 mm^3
same,Tumor volume,[2]; Day 28,12.51 mm^3
same,Relative tumor volume (x ± S),"[2]; 10 mg/kg, QWx3, i.v., Day 28",0.10 ± 0.04
same,T/C (%),"[2]; 10 mg/kg, QWx3, i.v., Day 28",2.86%
same,TGI (%),"[2]; 10 mg/kg, QWx3, i.v., Day 28",97.14%
same,Tumor volume (x ± S),"[2]; 10 mg/kg, QWx3, i.v., Day 28",12.51 ± 5.25
